PMC1073692, “An Unbiased Cell Morphology–Based Screen for New, Biologically Active Small Molecules” (PLoS Biology, 2005)
Several values for one entry are separate records, joined by “and”; a condition that tells them apart may be missing. Equal values may be shown once. Entries after “also recorded” stand apart in the source; their conditions may differ. Read-outs that look alike come from different tables or passages of the source.

Assays:
[1] = system: A549, DU145, HUVEC, SF268 and SKOV3 cells; assay: Cytometrix cell morphology-based screen; design: species or system human; conditions: for Cytometrix phenotype (PCA trajectory): 6 nM to 40 μM; for EC50: Homo sapiens, read-out: Approximate EC50 (distance in PCA space from DMSO controls); for Potency in Cytometrix relative to parent compound (fold lower): linker analog vs parent, data not shown
Method: SKOV3 (ovarian epithelial cancer), A549 (lung epithelial cancer), and SF268 (central nervous system epithelial cancer) were chosen for their broad genetic diversity and obtained from the National Institutes of Health. These human cells were grown and maintained in RMPI medium (Mediatech, Herndon, Virginia, United States) with 5% fetal calf serum (FBS, HyClone, Logan, Utah, United States). DU145 (prostate epithelial cancer) cells ( ATTC, Manassas, Virginia, United States) were maintained in MEM with 5% FBS. HUVEC cells (VEC Technologies, Rensselaer, New York, United States) were maintained in MCDB131 medium (VEC Technologies) with 10% FBS. For the assays 1,000–1,800 trypsinized (Mediatech) cells per well (depending on cell type) were plated in 384-well plates (Corning Costar, Acton, Massachusetts, United States) using a Multidrop (Thermo Labsystems, Beverly, Massachusetts, United States) and incubated for 24 h, the approximate doubling time. Six cell plates were made for each cell line.
Compound stocks were maintained in DMSO. Compound information was stored in ActivityBase (ID Business Solutions, Guildford, United Kingdom). Compounds were serially diluted in 384-well drug plates to achieve eight concentrations diluting 3× in DMSO between wells using a Multimek (Beckman Coulter, Fullerton, California, United States). Wells were reserved on every drug plate for negative and positive controls. Negative-control wells contained DMSO only and the positive-control wells received a titration of paclitaxel, a tubulin stabilizer (Sigma-Aldrich-Fluka, St. Louis, Missouri, United States). […] Small molecules were tested at 40 μM on cells based on the logic that cellular effects on cells at […] concentration are most likely nonspecific and that we would most likely get a full-dose response after eight 3-fold dilutions (6 nM to 40 μM final concentrations).
Compounds were added to cell plates from drug plates. Compound mixed with medium was added to the cells to achieve a 0.4% DMSO concentration on prepared cell plates using a PlateTrak (CCS Packard, Torrance, California, United States). Treated cells were incubated for another 24 h, the compound exposure time.
Cells were stained for visualization of the nuclei, Golgi apparatus, and microtubules. Cells were fixed with 4% formaldehyde (Polysciences, Warrington, Pennsylvania, United States) for 1 h; washed in TBS (Teknova, Half Moon Bay, California, United States); blocked in 0.01% Triton X-100 (ICN Biomedicals, Irvine, California, United States) and 1% BSA in TBS (Teknova) and then left to incubate for 1 h; stained with 0.01% Triton X-100, 0.1% BSA, 5 μg/ml Hoechst 33342 (Molecular Probes, Eugene, Oregon, United States), 5 μg/ml FITC-Lectin Lens Culinaris (Sigma-Aldrich-Fluka), and 3 μg/ml Rhodamine Red–labeled monoclonal antibody DM1α (courtesy of Tim Stearns) for 1 h; and then washed in TBS. All of these steps were performed with a PlateTrak using an ELx405 microplate washer (Bio-Tek Instruments, Winooski, Vermont, United States). This was done in triplicate for each cell line.
Cells were imaged on an inverted Axiovert 100M epifluorescent microscope (Carl Zeiss, Oberkochen, Germany) with a 5× objective and a Xenon lamp (Sutter Instruments, Novato, California, United States). A 5× magnification was chosen (rather than 40×) primarily as a function of the need to acquire a large number of individual cells in order to gather statistically relevant data on relatively rare subpopulations. The number of cells in a randomly acquired 40× image is not sufficient to make meaningful statistical measurements across many cells. Metamorph (Universal Imaging, Downingtown, Pennsylvania, United States) was used to control the motorized x, y, z stage (Prior Scientific, Rockland, Massachusetts, United States) that moved the plate to each well, autofocused, and took three successive fluorescent images with an Orca 100 camera (Hamamatsu, Hamamatsu City, Japan). […]

[2] = target: T1, protein kinase B (Homo sapiens, UniProt P31749); assay: Kinase disk assay (32P transfer to peptide), PKB; format: biochemical; conditions: 25 min, read-out: Relative activity @ 1 µM inhibitor PKB
T1 construct: purchased Upstate Cell Signaling Specialties
Method: (§1) Fyn and p38 kinases were expressed in bacteria and purified as previously described. Protein kinase A and Protein kinase B were obtained commercially (Upstate Cell Signaling Specialties Charlottesville, Virginia, United States). […] Reaction mixtures (27 μl) were spotted onto a phosphocellulose disk and washed with 0.5% H3PO4. The transfer of ^32P was measured by standard scintillation counting. […] When the IC50 value fell between two measured concentrations, it was calculated based on the assumption of an inversely proportional relationship between inhibitor concentration and counts per minute between the two data points.
(§2) IC50 values against Fyn and p38 are given (left), and percentage activity of PKA and PKB in presence of the inhibitors are given (right). Kinase activity was determined using a standardized disk assay based on the P^32 transfer to a synthetic peptide (See Materials and Methods). […] Peptide subrate sequences for each kinase are shown below:
bzRPRTSSF (100 µM) was used as the susbtrate for PKB.

[3] = system: A549 cells; assay: Cell viability assay (alamarBlue reduction), daunorubicin combination; format: cell-based, human; conditions: for Cytotoxicity on A549 cells when used alone: 8 μM; for Enhancement of daunorubicin-mediated A549-cell killing: 8 μM compound with 440 nM daunorubicin
From the text: To test this hypothesis, we measured the ability of hydroxy-PP-Me and PP-L to block CBR1-mediated metabolism of daunorubicin in A549 cells using cell killing as a measure of the cellular status of daunorubicin metabolism. […] Hydroxy-PP-Me induced a 25% enhancement of daunorubicin-mediated A549-cell killing consistent with its ability to inhibit CBR1-mediated daunorubicin metabolism. […] Although the observed 25% enhancement of daunorubicin-mediated cell killing is modest, the hydroxy-PP-Me dose dependence (Figure 5B) of this effect is further evidence that it is CBR1 mediated rather than a general toxic response.
A549 cells were purchased from ATCC and cultured in the F-12K medium with 10% of FBS. Cells were maintained at 37 °C in an atmosphere of 5% CO2. Adherant cells were released for passaging using an isotonic Trypsin solution (0.25% Trypsin, 0.02% Versene). Rabbit anti-human CBR1 antibody was obtained from Dr. Tsuchida. The CBR expression vector, pET-11aCR, was obtained from Dr. Wermuth.
(§3) Cell viability was determined by the alamarBlue reagent reduction assay in a 96-well culture plate, measuring the absorbance at 570 and 600 nm spectrophotometrically. The amount of PI-stained cells was estimated by measuring fluorescence following incubation with PI (5 μg/ml). For both experiments, data are shown as the percentages of nontreated control cells.

[4] = system: A549 cells; assay: PI-stained cell assay, serum-withdrawal-induced apoptosis; format: cell-based, human; conditions: for Protection against serum-withdrawal-induced apoptosis (PI staining): 65 h following serum withdrawal; for Enhancement of induction of apoptosis by cell stresses: A549, interferon-γ + Fas ligand, H2O2, interleukin-1β, serum withdrawal, interleukin-1β + serum withdrawal, data not shown
From the text: We chose to focus on signals that induce apoptosis in A549 adenocarcinoma cells because this endpoint is important for many cell-fate decisions, including those relevant to cancer and inflammation. CBR1 has been directly implicated in redox reactions leading to H2O2 generation, a known stimulus for apoptosis. A549 cells were subjected to a wide range of cell stresses previously shown to induce apoptosis: (1) interferon-γ + Fas ligand, (2) H2O2, (3) interleukin-1β, (4) serum withdrawal, or (5) interleukin-1β + serum withdrawal.
as §3

[5] = target: T2, p38-α (Homo sapiens, UniProt Q16539); assay: Kinase disk assay (32P transfer to peptide), p38; format: biochemical; conditions: Table S3; […] 100 µM substrate, 11 nM [γ-32P]ATP
T2 construct: made in house; host or cells: bacteria
Method: as §1, §2
[…] (100 µM) was used as the substrate for p38.

[6] = target: T3, human CBR1 (Homo sapiens, UniProt P16152); assay: CBR1 assay (NADPH-dependent reduction of menadione, spectrophotometric)
T3 sequence (P16152 1-277): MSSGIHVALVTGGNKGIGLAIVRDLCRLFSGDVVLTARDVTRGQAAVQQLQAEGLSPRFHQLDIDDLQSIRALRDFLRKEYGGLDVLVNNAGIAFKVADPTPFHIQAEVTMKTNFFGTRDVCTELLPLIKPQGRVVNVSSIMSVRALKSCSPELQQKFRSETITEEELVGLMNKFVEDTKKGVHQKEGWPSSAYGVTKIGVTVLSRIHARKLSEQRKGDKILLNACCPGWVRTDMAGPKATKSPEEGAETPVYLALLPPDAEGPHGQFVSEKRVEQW
Method: CBR1 activity was determined spectrophotometrically at 25 °C. The standard assay mixture consisted of 50 mM sodium phosphate (pH 6.8), 200 μM NADPH, and 200 μM menadione in a total volume of 1 ml. Compounds were dissolved in DMSO as 100× stock solutions. Reactions were initiated by the addition of enzyme, and initial rates were determined by monitoring the disappearance of NADPH at 340 nM. Controls without substrates or enzyme were routinely included.

[7] = target: T4, Fyn (Homo sapiens, UniProt P06241); assay: Kinase disk assay (32P transfer to peptide), Fyn; format: biochemical
T4 construct: made in house; host or cells: bacteria
Method: as §1, §2
[…] (100 µM) was used as the substrate for Fyn.

[8] = target: T5, protein kinase A (Homo sapiens, UniProt P17612); assay: Kinase disk assay (32P transfer to peptide), PKA; format: biochemical; conditions: remaining kinase activity
T5 construct: purchased Upstate Cell Signaling Specialties
Method: as §1, §2
bzRRASLG (100 µM) was used as the susbtrate for PKA.

[9] = IC50 against CBR1, 200 μM NADPH, 200 μM menadione, pH 6.8, 25 °C
[10] = 1 µM inhibitor, remaining kinase activity
[11] = read-out: IC50 against Fyn (Figure 3)

T4 sequence (P06241 whole entry, species assumed): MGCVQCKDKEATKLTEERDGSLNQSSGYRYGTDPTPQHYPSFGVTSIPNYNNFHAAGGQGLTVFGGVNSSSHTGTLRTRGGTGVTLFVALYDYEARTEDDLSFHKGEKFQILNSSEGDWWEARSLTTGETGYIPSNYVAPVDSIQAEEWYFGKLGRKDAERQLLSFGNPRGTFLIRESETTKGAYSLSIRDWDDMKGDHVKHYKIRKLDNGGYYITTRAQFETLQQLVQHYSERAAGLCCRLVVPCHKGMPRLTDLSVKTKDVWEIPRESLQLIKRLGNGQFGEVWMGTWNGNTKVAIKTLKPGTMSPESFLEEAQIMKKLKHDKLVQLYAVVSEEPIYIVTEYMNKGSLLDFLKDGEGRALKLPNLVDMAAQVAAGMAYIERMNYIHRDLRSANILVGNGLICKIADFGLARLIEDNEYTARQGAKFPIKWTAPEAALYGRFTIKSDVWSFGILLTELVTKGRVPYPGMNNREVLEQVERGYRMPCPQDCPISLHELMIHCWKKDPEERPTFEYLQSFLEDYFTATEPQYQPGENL
T1 sequence (P31749 whole entry, species assumed): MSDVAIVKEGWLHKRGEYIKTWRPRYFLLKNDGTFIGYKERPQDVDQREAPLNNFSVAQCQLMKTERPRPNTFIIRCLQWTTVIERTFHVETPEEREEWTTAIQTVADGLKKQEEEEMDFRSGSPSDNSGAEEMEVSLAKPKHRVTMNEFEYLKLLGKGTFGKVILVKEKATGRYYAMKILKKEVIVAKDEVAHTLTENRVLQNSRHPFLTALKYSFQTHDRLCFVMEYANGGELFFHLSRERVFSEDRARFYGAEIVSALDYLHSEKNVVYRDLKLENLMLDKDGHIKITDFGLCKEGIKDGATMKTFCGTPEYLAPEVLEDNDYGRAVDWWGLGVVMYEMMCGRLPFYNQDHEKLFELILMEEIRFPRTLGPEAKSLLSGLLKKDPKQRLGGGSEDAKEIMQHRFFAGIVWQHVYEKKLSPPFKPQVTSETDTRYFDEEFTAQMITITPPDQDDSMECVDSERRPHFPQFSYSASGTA
T2 sequence (Q16539 whole entry): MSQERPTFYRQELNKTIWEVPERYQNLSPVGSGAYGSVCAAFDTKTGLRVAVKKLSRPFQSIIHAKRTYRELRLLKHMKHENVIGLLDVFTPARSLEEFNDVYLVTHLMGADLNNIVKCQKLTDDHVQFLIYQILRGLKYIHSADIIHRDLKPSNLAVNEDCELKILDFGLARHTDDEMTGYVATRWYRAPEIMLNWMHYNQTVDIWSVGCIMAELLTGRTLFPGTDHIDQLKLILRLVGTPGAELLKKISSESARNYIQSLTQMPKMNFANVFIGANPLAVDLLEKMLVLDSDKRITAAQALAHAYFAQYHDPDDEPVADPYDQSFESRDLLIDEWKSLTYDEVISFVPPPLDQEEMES

COC(=O)[C@@]1(O)C[C@H]2O[C@]1(C)n1c3ccccc3c3c4c(c5c6ccccc6n2c5c31)C(=O)NC4 [K252a, reference compound]
Cytometrix phenotype (PCA trajectory) ([1]; 24 h, five cell types): dose-dependent morphological changes in A549, DU145, HUVEC, and SF268 cells but not SKOV3 cells

CC(C)(C)n1nc(-c2ccc(Cl)cc2)c2c(N)ncnc21 [PP2, 1-tert-butyl-3-(4-chlorophenyl)-1H-pyrazolo[3,4-d]pyrimidin-4-amine, reference compound]
activity at 1 µM [2]: 103%
EC50 ([1]; 24 h): ~129 µM

CCOCCn1nc(-c2ccccc2)c2c(N)ncnc21 [PP-L]
Cytotoxicity on A549 cells when used alone [3]: minimal cytotoxicity
Enhancement of daunorubicin-mediated A549-cell killing [3]: no enhancement of cell killing
Protection against serum-withdrawal-induced apoptosis (PI staining) ([4]; A549 cells): does not
Potency in Cytometrix relative to parent compound (fold lower) [1]: approximately 5 fold

COc1cccc2c1C(=O)c1c(O)c3c(c(O)c1C2=O)C[C@@](O)(C(C)=O)C[C@@H]3O[C@H]1C[C@H](N)[C@H](O)[C@H](C)O1 [daunorubicin, reference compound]
IC50 ([3]; Homo sapiens, A549, read-out: Approximate IC50 for cell killing as a single agent): ~0.44 µM

CC(C)(C)n1nc(-c2cccc(O)c2)c2c(N)ncnc21 [hydroxy-PP, 3-(1-tert-butyl-4-amino-1H-pyrazolo[3,4-d]pyrimidin-3-yl)phenol]
Enhancement of induction of apoptosis by cell stresses [4]: no enhancement
Protection against serum-withdrawal-induced apoptosis (PI staining) ([4]; A549 cells): able to block A549-cell apoptosis
IC50 [5]: 17000 nM
IC50 [6, 9]: 0.788 µM
IC50 ([6]; IC50 against CBR1, re-screen of the screening collection, data not shown): < 1 µM
activity at 1 µM [2, 10]: 91%
Cytometrix phenotype (PCA trajectory) ([1]; 24 h, five cell types): distinct from the phenotypes induced by kinase inhibitors and the microtubule depolymerization inhibitors
EC50 ([1]; 24 h treatment, five cell types, concentration of Figure 1D, called approximately the EC50): ~0.4 µM
IC50 [7, 11]: 5 nM
Relative activity @ 1 µM inhibitor PKA [8]: 110%

CCOCCn1nc(-c2cccc(O)c2)c2c(N)ncnc21 [hydroxy-PP-L]
Protection against serum-withdrawal-induced apoptosis (PI staining) ([4]; A549 cells): protects A549 cells against serum-withdrawal-induced apoptosis, although to a lesser extent than hydroxy-PP-Me
Protection against serum-withdrawal-induced apoptosis (PI staining) ([4]; A549 cells, listed as Hydroxy-PP-L): dose-dependent decrease in PI staining
Potency in Cytometrix relative to parent compound (fold lower) [1]: approximately 5 fold

CNc1ncnc2c1c(-c1cccc(O)c1)cn2C(C)C [hydroxy-PP-Me, 3-(7-isopropyl-4-(methylamino)-7H-pyrrolo[2,3-d]pyrimidin-5yl)phenol]
Cytotoxicity on A549 cells when used alone [3]: minimal cytotoxicity
Enhancement of daunorubicin-mediated A549-cell killing [3]: 25%
Cell viability with concomitant daunorubicin treatment ([3]; 1–8 μM compound plus daunorubicin): dose-dependent decrease in cell viability
Enhancement of induction of apoptosis by cell stresses [4]: no enhancement
Apoptosis induced by serum withdrawal blocked ([4]; A549 cells): more than 90%
Protection against serum-withdrawal-induced apoptosis (PI staining) ([4]; A549 cells): dose-dependent decrease in PI staining; also recorded: almost completely protected against apoptosis
IC50 [5]: > 50000 nM
IC50 [6, 9]: 0.759 µM
activity at 1 µM [2, 10]: 95%
IC50 ([7]; Table S3, LEEIYGEFKKK 100 µM substrate, 11 nM [γ-32P]ATP, read-out: IC50 (nM) Fyn): > 50000 nM
IC50 [7, 11]: 70000 nM and > 70000 nM
Relative activity @ 1 µM inhibitor PKA [8]: 106%

CC(=O)O[C@H]1C(=O)[C@@]2(C)[C@H]([C@H](OC(=O)c3ccccc3)[C@]3(O)C[C@H](OC(=O)[C@H](O)[C@@H](NC(=O)c4ccccc4)c4ccccc4)C(C)=C1C3(C)C)[C@]1(OC(C)=O)CO[C@@H]1C[C@@H]2O [paclitaxel, reference compound]
Cytometrix phenotype (PCA trajectory) ([1]; 24 h, five cell types): pronounced and highly reproducible trajectory
